Assay results taken from ChEMBL document CHEMBL4680222, “Sensitive fluorogenic substrates for sirtuin deacylase inhibitor discovery” (Eur J Med Chem, 2020).
Where a SMILES comes first, the peptide text is derived from it. The star is where a group is joined. AMC = Cc1cc(=O)oc2cc(N*)ccc12; Decanoyl = CCCCCCCCCC(=O)*

What was measured:
[1] = molecular target: T1, NAD-dependent protein deacetylase sirtuin-7 (Homo sapiens) (UniProt Q9NRC8); assay: Substrate activity at human N-terminal His-tagged SIRT7 (68 to 354 residues) expressed in Escherichia coli at 0.5 uM measured after 2 hrs in presence of NAD+ and trypsin by fluorescence assay
T1 sequence (whole entry): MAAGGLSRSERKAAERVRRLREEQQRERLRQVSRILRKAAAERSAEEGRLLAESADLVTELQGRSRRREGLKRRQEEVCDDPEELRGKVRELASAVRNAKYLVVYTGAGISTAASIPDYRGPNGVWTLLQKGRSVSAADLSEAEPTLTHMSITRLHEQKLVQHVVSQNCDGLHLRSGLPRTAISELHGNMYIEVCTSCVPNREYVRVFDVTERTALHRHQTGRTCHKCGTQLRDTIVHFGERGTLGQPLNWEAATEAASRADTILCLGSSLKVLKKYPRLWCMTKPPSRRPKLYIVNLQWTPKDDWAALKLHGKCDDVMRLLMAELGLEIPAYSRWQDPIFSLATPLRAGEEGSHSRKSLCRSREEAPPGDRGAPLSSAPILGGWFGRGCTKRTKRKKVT

[2] = molecular target: NAD-dependent protein deacylase sirtuin-6 (Homo sapiens) (UniProt Q8N6T7); assay: Substrate activity at human N-terminal His-tagged SIRT6 (1 to 355 residues) expressed in Escherichia coli at 0.5 uM measured after 2 hrs in presence of NAD+ and trypsin by fluorescence assay
NAD-dependent protein deacylase sirtuin-6 (Homo sapiens), sequence (Q8N6T7 whole entry, the tested form may be a part): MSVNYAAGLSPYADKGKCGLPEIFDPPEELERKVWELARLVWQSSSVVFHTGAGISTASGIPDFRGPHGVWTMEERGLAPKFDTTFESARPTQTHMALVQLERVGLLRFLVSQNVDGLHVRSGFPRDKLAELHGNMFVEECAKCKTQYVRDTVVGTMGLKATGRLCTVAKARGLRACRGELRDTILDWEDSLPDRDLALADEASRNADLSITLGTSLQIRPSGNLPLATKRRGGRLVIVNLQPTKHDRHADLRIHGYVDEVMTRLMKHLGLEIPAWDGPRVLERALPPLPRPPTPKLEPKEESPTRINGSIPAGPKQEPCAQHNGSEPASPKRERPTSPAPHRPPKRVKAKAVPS

[3] = molecular target: NAD-dependent protein deacylase sirtuin-5, mitochondrial (Homo sapiens) (UniProt Q9NXA8); assay: Substrate activity at human N-terminal His-tagged SIRT5 (34 to 302 residues) expressed in Escherichia coli at 0.5 uM measured after 2 hrs in presence of NAD+ and trypsin by fluorescence assay
NAD-dependent protein deacylase sirtuin-5, mitochondrial (Homo sapiens), sequence (Q9NXA8 37-310 limits assumed): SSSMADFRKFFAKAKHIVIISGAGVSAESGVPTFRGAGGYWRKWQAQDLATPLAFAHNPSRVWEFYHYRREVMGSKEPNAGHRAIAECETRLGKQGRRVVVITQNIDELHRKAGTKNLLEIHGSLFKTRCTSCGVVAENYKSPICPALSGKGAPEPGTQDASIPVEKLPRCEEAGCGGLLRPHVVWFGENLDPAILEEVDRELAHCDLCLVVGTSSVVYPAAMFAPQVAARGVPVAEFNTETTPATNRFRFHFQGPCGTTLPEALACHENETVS

[4] = molecular target: T2, NAD-dependent protein deacetylase sirtuin-3, mitochondrial (Homo sapiens) (UniProt Q9NTG7); assay: Substrate activity at human N-terminal His-tagged SIRT3 (122 to 391 residues) expressed in Escherichia coli at 0.5 uM measured after 2 hrs in presence of NAD+ and trypsin by fluorescence assay
T2 sequence (whole entry): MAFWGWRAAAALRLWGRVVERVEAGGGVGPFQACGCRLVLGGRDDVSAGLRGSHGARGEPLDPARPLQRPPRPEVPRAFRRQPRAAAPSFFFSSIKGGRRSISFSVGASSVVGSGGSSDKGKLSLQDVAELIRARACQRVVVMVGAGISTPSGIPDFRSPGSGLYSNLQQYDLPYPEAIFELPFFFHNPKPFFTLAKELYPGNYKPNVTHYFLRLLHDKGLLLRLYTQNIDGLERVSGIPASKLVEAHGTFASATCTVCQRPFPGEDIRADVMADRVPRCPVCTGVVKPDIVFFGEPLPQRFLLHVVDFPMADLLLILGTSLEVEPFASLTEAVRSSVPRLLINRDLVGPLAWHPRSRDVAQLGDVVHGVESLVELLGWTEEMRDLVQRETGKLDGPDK

[5] = molecular target: T3, NAD-dependent protein deacetylase sirtuin-2 (Homo sapiens) (UniProt Q8IXJ6); assay: Substrate activity at human N-terminal His-tagged SIRT2 (56 to 356 residues) expressed in Escherichia coli at 0.5 uM measured after 2 hrs in presence of NAD+ and trypsin by fluorescence assay
T3 sequence (whole entry): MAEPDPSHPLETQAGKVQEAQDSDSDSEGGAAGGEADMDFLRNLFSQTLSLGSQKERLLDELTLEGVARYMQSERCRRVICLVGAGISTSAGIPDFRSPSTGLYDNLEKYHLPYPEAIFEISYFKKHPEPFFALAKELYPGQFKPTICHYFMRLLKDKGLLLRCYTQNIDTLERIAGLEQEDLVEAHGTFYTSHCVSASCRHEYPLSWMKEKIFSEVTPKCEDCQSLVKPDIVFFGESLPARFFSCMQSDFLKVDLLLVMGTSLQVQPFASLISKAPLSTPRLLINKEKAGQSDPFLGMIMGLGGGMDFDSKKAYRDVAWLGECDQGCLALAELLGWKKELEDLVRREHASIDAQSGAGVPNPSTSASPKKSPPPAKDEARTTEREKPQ

[6] = molecular target: T4, NAD-dependent protein deacetylase sirtuin-1 (Homo sapiens) (UniProt Q96EB6); assay: Substrate activity at human N-terminal His-tagged SIRT1 (183 to 664 residues) expressed in Escherichia coli at 0.5 uM measured after 2 hrs in presence of NAD+ and trypsin by fluorescence assay
T4 sequence (whole entry): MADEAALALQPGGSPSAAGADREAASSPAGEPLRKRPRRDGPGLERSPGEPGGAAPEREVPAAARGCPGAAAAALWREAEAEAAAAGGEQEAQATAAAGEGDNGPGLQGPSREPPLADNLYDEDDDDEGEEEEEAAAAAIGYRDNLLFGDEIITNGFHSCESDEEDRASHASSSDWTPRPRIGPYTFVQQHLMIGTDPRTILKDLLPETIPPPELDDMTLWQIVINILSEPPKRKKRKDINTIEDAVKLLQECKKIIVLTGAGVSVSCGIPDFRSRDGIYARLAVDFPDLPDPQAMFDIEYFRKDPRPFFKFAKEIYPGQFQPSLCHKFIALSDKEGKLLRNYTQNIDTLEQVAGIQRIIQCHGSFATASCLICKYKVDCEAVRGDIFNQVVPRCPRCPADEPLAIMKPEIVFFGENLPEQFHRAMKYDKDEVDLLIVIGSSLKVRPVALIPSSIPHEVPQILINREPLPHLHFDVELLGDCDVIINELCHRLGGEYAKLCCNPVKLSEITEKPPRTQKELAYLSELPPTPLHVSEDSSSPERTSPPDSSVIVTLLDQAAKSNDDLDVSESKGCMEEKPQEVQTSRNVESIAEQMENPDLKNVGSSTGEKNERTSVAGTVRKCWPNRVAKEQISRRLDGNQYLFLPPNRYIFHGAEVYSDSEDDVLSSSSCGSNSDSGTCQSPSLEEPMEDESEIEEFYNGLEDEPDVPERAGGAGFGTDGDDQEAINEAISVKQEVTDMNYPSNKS

[7] = molecular target: T1, NAD-dependent protein deacetylase sirtuin-7 (Homo sapiens); assay: Substrate activity at human N-terminal His-tagged SIRT7 (68 to 354 residues) expressed in Escherichia coli at 5 uM measured after 2 hrs in presence of NAD+ and trypsin by fluorescence assay
[8] = molecular target: NAD-dependent protein deacylase sirtuin-6 (Homo sapiens) (UniProt Q8N6T7); assay: Substrate activity at human N-terminal His-tagged SIRT6 (1 to 355 residues) expressed in Escherichia coli at 5 uM measured after 2 hrs in presence of NAD+ and trypsin by fluorescence assay
[9] = molecular target: NAD-dependent protein deacylase sirtuin-5, mitochondrial (Homo sapiens) (UniProt Q9NXA8); assay: Substrate activity at human N-terminal His-tagged SIRT5 (34 to 302 residues) expressed in Escherichia coli at 5 uM measured after 2 hrs in presence of NAD+ and trypsin by fluorescence assay
[10] = molecular target: T2, NAD-dependent protein deacetylase sirtuin-3, mitochondrial (Homo sapiens); assay: Substrate activity at human N-terminal His-tagged SIRT3 (122 to 391 residues) expressed in Escherichia coli at 5 uM measured after 2 hrs in presence of NAD+ and trypsin by fluorescence assay
[11] = molecular target: T3, NAD-dependent protein deacetylase sirtuin-2 (Homo sapiens); assay: Substrate activity at human N-terminal His-tagged SIRT2 (56 to 356 residues) expressed in Escherichia coli at 5 uM measured after 2 hrs in presence of NAD+ and trypsin by fluorescence assay
[12] = molecular target: T4, NAD-dependent protein deacetylase sirtuin-1 (Homo sapiens); assay: Substrate activity at human N-terminal His-tagged SIRT1 (183 to 664 residues) expressed in Escherichia coli at 5 uM measured after 2 hrs in presence of NAD+ and trypsin by fluorescence assay
[13] = molecular target: T1, NAD-dependent protein deacetylase sirtuin-7 (Homo sapiens); assay: Substrate activity at human N-terminal His-tagged SIRT7 (68 to 354 residues) expressed in Escherichia coli at 50 uM measured after 2 hrs in presence of NAD+ and trypsin by fluorescence assay
[14] = molecular target: NAD-dependent protein deacylase sirtuin-6 (Homo sapiens) (UniProt Q8N6T7); assay: Substrate activity at human N-terminal His-tagged SIRT6 (1 to 355 residues) expressed in Escherichia coli at 50 uM measured after 2 hrs in presence of NAD+ and trypsin by fluorescence assay
[15] = molecular target: NAD-dependent protein deacylase sirtuin-5, mitochondrial (Homo sapiens) (UniProt Q9NXA8); assay: Substrate activity at human N-terminal His-tagged SIRT5 (34 to 302 residues) expressed in Escherichia coli at 50 uM measured after 2 hrs in presence of NAD+ and trypsin by fluorescence assay
[16] = molecular target: T2, NAD-dependent protein deacetylase sirtuin-3, mitochondrial (Homo sapiens); assay: Substrate activity at human N-terminal His-tagged SIRT3 (122 to 391 residues) expressed in Escherichia coli at 50 uM measured after 2 hrs in presence of NAD+ and trypsin by fluorescence assay
[17] = molecular target: T3, NAD-dependent protein deacetylase sirtuin-2 (Homo sapiens); assay: Substrate activity at human N-terminal His-tagged SIRT2 (56 to 356 residues) expressed in Escherichia coli at 50 uM measured after 2 hrs in presence of NAD+ and trypsin by fluorescence assay
[18] = molecular target: T4, NAD-dependent protein deacetylase sirtuin-1 (Homo sapiens); assay: Substrate activity at human N-terminal His-tagged SIRT1 (183 to 664 residues) expressed in Escherichia coli at 50 uM measured after 2 hrs in presence of NAD+ and trypsin by fluorescence assay

| SMILES | Activity [1] | Activity [2] | Activity [3] | Activity [4] | Activity [5] | Activity [6] | Activity [7] | Activity [8] | Activity [9] | Activity [10] | Activity [11] | Activity [12] | Activity [13] | Activity [14] | Activity [15] | Activity [16] | Activity [17] | Activity [18] |
| --- | --- | --- | --- | --- | --- | --- | --- | --- | --- | --- | --- | --- | --- | --- | --- | --- | --- | --- |
| CC(=O)NCCCC[C@H](NC(=O)[C@H](CCCNC(=N)N)NC(=O)[C@H](CO)NC(=O)[C@H](CC(N)=O)NC(C)=O)C(=O)Nc1ccc2c(C)cc(=O)oc2c1 (Ac-NSRK(Ac)-{AMC}) | 0.38 RFU | 0.49 RFU | 0.27 RFU | 0.34 RFU | 0.23 RFU | 0.23 RFU | 0.32 RFU | 0.36 RFU | 0.28 RFU | 0.41 RFU | 0.24 RFU | 0.37 RFU | 0.44 RFU | 0.44 RFU | 1.02 RFU | 0.67 RFU | 0.52 RFU | 1.21 RFU |
| CC[C@H](C)[C@H](NC(=O)[C@H](CC(C)C)NC(=O)[C@H](CCCNC(=N)N)NC(C)=O)C(=O)N[C@@H](CCCCNC(C)=O)C(=O)Nc1ccc2c(C)cc(=O)oc2c1 (Ac-RLIK(Ac)-{AMC}) | 0.27 RFU | 0.45 RFU | 0.22 RFU | 2.66 RFU | 0.66 RFU | 0.66 RFU | 3.2 RFU | 0.32 RFU | 0.27 RFU | 14.2 RFU | 4.96 RFU | 18.3 RFU | 0.71 RFU | 0.71 RFU | 0.98 RFU | 28.2 RFU | 32.5 RFU | 24.1 RFU |
| CCCCCCCCCC(=O)NCCCC[C@H](NC(=O)[C@H](CCCCN)NC(=O)[C@@H]1CCCN1C(=O)[C@H](CC(N)=O)NC(C)=O)C(=O)Nc1ccc2c(C)cc(=O)oc2c1 (Ac-NPKK(Decanoyl)-{AMC}) | 0.29 RFU | 0.39 RFU | 0.31 RFU | 0.51 RFU | 0.29 RFU | 0.29 RFU | 0.49 RFU | 0.42 RFU | 0.34 RFU | 0.79 RFU | 1.18 RFU | 0.76 RFU | 1.32 RFU | 1.32 RFU | 1.99 RFU | 3.19 RFU | 5.3 RFU | 2.87 RFU |
| CC(=O)NCCCC[C@H](NC(=O)[C@H](CCCCN)NC(=O)[C@H](Cc1cnc[nH]1)NC(=O)[C@H](CCCNC(=N)N)NC(C)=O)C(=O)Nc1ccc2c(C)cc(=O)oc2c1 (Ac-RHKK(Ac)-{AMC}) | 0.39 RFU | 0.5 RFU | 0.37 RFU | 0.28 RFU | 0.37 RFU | 0.37 RFU | 0.33 RFU | 0.38 RFU | 0.3 RFU | 0.38 RFU | 0.73 RFU | 1.13 RFU | 0.43 RFU | 0.43 RFU | 0.61 RFU | 1.61 RFU | 2.64 RFU | 5.22 RFU |
| CC(=O)NCCCC[C@H](NC(=O)[C@H](CCCNC(=N)N)NC(=O)[C@H](C)NC(=O)[C@@H](NC(C)=O)[C@@H](C)O)C(=O)Nc1ccc2c(C)cc(=O)oc2c1 (Ac-TARK(Ac)-{AMC}) | 0.39 RFU | 0.35 RFU | 0.26 RFU | 0.31 RFU | 0.2 RFU | 0.2 RFU | 0.28 RFU | 0.34 RFU | 0.27 RFU | 0.38 RFU | 0.22 RFU | 0.33 RFU | 0.43 RFU | 0.43 RFU | 0.7 RFU | 0.88 RFU | 0.48 RFU | 0.97 RFU |
